Measurements reported in the Kinase Knowledgebase extract (Sharma et al. 2016).

Key:
PIK3CA (human) = PIK3CA (human) (UniProt P42336); assay: Inhibition of PIK3CA Kinase Activity
PIK3CD (Human) = PIK3CD (Human) (UniProt O00329); assay: Inhibition of PIK3CD Kinase Activity
PIK3CB (Human) = PIK3CB (Human) (UniProt P42338); assay: Inhibition of PIK3CB Kinase Activity
Sequence of PIK3CB (Human) (P42338 whole entry, looked up): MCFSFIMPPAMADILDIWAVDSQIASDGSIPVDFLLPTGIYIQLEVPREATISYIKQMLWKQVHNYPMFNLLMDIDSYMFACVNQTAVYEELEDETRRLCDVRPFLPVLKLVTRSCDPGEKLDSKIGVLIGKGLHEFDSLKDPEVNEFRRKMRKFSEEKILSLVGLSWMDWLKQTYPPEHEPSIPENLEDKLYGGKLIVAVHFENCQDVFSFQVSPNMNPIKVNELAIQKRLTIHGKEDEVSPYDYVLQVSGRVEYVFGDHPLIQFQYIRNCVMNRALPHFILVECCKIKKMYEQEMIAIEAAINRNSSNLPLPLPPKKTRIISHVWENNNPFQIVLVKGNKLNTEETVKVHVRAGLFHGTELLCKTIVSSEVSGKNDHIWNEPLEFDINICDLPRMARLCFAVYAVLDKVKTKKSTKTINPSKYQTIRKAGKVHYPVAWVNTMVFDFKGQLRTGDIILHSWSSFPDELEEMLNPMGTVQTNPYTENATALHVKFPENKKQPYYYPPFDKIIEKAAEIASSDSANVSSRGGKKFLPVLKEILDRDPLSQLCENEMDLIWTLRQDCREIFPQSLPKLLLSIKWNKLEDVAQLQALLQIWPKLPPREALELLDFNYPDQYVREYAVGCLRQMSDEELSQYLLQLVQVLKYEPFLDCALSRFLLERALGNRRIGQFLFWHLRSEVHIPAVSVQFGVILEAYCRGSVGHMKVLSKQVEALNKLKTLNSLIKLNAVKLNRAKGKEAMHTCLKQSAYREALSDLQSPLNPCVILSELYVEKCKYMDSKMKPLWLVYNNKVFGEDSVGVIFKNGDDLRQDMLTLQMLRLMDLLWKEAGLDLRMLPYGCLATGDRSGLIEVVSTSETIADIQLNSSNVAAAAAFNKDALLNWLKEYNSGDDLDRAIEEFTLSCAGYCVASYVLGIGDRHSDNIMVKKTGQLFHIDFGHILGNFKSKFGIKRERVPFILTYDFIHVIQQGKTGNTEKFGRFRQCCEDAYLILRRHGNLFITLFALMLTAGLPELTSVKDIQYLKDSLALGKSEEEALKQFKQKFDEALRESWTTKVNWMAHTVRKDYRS

Sequence of PIK3CA (human) (P42336 whole entry, looked up): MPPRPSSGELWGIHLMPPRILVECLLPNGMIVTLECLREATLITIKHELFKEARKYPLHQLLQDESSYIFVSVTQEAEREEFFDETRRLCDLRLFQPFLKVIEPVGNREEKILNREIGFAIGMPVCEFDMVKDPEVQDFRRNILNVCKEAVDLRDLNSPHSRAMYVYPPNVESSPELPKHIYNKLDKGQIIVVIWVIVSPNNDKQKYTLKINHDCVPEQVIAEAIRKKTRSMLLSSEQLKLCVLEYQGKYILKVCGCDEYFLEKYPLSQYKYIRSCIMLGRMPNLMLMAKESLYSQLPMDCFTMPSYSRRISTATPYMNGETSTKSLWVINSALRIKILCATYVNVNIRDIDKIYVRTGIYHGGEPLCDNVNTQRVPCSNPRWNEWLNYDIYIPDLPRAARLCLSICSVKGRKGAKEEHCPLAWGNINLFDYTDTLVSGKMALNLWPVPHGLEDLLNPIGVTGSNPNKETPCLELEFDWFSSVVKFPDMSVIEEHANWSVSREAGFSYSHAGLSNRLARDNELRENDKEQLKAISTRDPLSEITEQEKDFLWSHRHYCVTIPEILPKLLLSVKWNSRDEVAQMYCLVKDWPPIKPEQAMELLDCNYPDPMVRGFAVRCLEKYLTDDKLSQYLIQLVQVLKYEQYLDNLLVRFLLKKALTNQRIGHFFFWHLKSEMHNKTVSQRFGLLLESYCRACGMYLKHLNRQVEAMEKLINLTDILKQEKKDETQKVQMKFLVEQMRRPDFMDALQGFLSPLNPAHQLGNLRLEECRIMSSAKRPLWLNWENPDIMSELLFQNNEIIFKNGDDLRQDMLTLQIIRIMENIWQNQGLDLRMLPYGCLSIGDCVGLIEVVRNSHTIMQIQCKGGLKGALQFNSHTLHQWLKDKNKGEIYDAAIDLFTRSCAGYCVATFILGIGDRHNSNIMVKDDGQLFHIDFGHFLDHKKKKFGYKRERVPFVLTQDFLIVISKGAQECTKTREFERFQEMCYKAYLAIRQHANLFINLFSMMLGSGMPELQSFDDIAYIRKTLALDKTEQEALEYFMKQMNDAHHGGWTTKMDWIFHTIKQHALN
Sequence of PIK3CD (Human) (O00329 whole entry, looked up): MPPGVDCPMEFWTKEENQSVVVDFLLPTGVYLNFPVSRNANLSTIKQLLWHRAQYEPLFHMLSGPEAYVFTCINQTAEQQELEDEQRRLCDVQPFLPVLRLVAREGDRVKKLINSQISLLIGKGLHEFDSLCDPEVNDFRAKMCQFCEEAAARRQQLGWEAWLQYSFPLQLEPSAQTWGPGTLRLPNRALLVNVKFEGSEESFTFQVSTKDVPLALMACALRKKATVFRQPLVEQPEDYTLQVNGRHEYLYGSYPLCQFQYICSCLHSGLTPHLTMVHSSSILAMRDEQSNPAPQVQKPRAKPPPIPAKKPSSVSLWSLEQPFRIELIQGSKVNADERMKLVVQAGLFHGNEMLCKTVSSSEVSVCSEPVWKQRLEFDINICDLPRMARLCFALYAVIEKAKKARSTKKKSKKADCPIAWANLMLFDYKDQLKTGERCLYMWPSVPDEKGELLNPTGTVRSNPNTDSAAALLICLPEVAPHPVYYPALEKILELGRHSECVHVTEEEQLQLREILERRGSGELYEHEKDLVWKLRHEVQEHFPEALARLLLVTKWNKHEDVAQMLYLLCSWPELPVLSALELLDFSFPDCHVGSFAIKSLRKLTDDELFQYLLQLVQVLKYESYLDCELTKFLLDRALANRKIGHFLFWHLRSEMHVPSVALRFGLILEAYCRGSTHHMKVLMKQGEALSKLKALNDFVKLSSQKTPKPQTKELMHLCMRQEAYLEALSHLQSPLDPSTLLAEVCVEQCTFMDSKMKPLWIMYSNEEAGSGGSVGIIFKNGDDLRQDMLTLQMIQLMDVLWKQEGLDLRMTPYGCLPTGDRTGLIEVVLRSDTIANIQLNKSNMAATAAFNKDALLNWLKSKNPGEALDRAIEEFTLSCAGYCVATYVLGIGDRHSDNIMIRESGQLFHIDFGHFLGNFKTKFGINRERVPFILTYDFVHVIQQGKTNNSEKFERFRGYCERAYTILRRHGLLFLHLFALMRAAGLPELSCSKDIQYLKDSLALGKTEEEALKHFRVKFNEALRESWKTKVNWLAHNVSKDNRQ

Structure (SMILES) | IC50 (PIK3CA (human)) | IC50 (PIK3CD (Human)) | IC50 (PIK3CB (Human))
CN(N=Cc1cnn2ccc(C#N)cc12)S(=O)(=O)c1cc([N+](=O)[O-])ccc1Cl | – | – | 94 nM
CCCCCC.Cc1ccc([N+](=O)[O-])cc1S(=O)(=O)N(C)N=Cc1cnn2ccc(I)cc12 | 23 nM | 240 nM | 720 nM
CN(N=Cc1cnn2ccc(C#N)cc12)S(=O)(=O)c1cc([N+](=O)[O-])ccc1CCc1ccccn1 | 5.8 nM | 200 nM | 5600 nM

Continued, values first:

IC50 (PIK3CA (human)) | IC50 (PIK3CD (Human)) | IC50 (PIK3CB (Human)) | Structure (SMILES)
84 nM | 120 nM | – | Cc1ccc([N+](=O)[O-])cc1S(=O)(=O)c1nnc(-c2cnn3ccc(Br)cc23)o1
– | – | > 10000 nM | Cc1ccc([N+](=O)[O-])cc1S(=O)(=O)N(C)N=Cc1cnn2ccccc12
